These results are taken from patent US9993457B2, “Method of improving visual processing, visual acuity, or both by administering compositions comprising RRR-alpha-tocopherol and carotenoid to infants” (ABBOTT LABORATORIES, priority 2014, dated 2018).

Where two headings read alike, the source gives them in different places.

For data set [1] the following is noted: cited from earlier work.
For data set [2] the following is noted: in vivo.
Text: In Example 1, the brain tissues of infants were sampled to measure the concentration of total alpha-tocopherol and RRR-alpha-tocopherol.
Subjects were infants (n=25) who died during the first year of life from either SIDS or other conditions. Brain tissues (occipital cortex, OC {n=17}; frontal cortex, FC {n−17}; and hippocampus, HPC {n=19}) from the NICHD Brain and Tissue Bank were processed using standard lipid extraction procedures and analyzed using chiral reverse phase HPLC. Data are presented as concentrations (μg/g tissue) of total alpha-tocopherol or RRR-alpha-tocopherol in the brain tissue.
The mean concentration in each region is denoted by a horizontal bar. […] In addition, total alpha-tocopherol was analyzed by age (in days) in the frontal cortex (graph B), hippocampus (graph C), and occipital cortex (graph D). […] RRR-alpha-tocopherol concentrations were also measured in the frontal cortex (graph E), hippocampus (graph F), and occipital cortex (graph G) of human infant brain tissues and reported as a function of age.

In the case of `Cc1c(C)c2c(c(C)c1O)CC[C@@](C)(CCC[C@H](C)CCC[C@H](C)CCCC(C)C)O2` [RRR-alpha-tocopherol], the “biological activity relative to all-rac-alpha-tocopherol” value in data set [1] (accepted nutritional guidelines) is 1.36 times. In data set [1] (recent studies), the “biological activity relative to all-rac-alpha-tocopherol” value was “about 2 times”. In data set [2], the “correlation between age and mean concentration” value is listed as “strong correlation”; the “stereoisomer predominance compared to all non-RRR-alpha-tocopherol stereoisomers” value was “predominant stereoisomer”.
Regarding `Cc1c(C)c2c(c(C)c1O)CC[C@@](C)(CCC[C@H](C)CCC[C@H](C)CCCC(C)C)O2` [alpha-tocopherol], the “change of total alpha-tocopherol concentration with age” value in data set [2] is “increased with age”.
